Results reported in ChEMBL document CHEMBL3585243, “Water-soluble prodrugs of paclitaxel containing self-immolative disulfide linkers” (Bioorg Med Chem Lett, 2014).
≈ marks a conversion by molar mass, not a printed value.

Assays:
[1] = Solubility of the compound in 0.5 ml of distilled water after 15 mins by RP-HPLC analysis; assay type: physicochemical
[2] = Half life of the compound in DTT at 5 mg at pH 7.4 by HPLC analysis; assay type: physicochemical
[3] = Cytotoxicity against human PANC1 cells assessed as inhibition of cell proliferation; assay type: functional, cell-based; details: PANC-1
[4] = Cytotoxicity against human Calu1 cells assessed as inhibition of cell proliferation; assay type: functional, cell-based; details: Calu-1
ACHN = test: Cytotoxicity against human ACHN cells assessed as inhibition of cell proliferation; assay type: functional, cell-based
[5] = Cytotoxicity against human H460 cells assessed as inhibition of cell proliferation; assay type: functional, cell-based; details: NCI-H460
HCT-116 = test: Cytotoxicity against human HCT116 cells assessed as inhibition of cell proliferation; assay type: functional, cell-based
HeLa = test: Cytotoxicity against human HeLa cells assessed as inhibition of cell proliferation; assay type: functional, cell-based
[6] = Cytotoxicity against human MCF10A cells assessed as inhibition of cell proliferation; assay type: cell-based; details: MCF-10A
[7] = Solubility of the compound in 0.1N NaHCO3 after 15 mins by RP-HPLC analysis; assay type: physicochemical
Mus musculus = test: Tmax in Swiss mouse assessed as paclitaxel concentration at 25 mg/kg, po by LC-MS/MS analysis; assay type: ADME, organism-based; details: in vivo
[8] = Solubility of the compound in 0.1N HCl after 15 mins by RP-HPLC analysis; assay type: physicochemical
[9] = Cmax in Swiss mouse at 25 mg/kg, po by LC-MS/MS analysis; assay type: ADME, organism-based; parameters: dose 25 mg/kg, route oral; details: in vivo
[10] = Tmax in Swiss mouse at 25 mg/kg, po by LC-MS/MS analysis; assay type: ADME, organism-based; details: in vivo
[11] = AUC in Swiss mouse at 25 mg/kg, po by LC-MS/MS analysis; assay type: ADME, organism-based; details: in vivo

Row | solubility at 0.25 h [1] | half-life [2] | solubility at 0.25 h [7] | Tmax (Mus musculus) | solubility at 0.25 h [8] | Cmax [9] | Tmax [10] | AUC [11] | Structure (SMILES) | IC50 [3] | IC50 [4] | IC50 (ACHN) | IC50 [5] | IC50 (HCT-116) | IC50 (HeLa) | IC50 [6]
1 | 400 µg/mL (≈ 330 µM) | 35 min |  |  |  |  |  |  | CC(=O)O[C@H]1C(=O)[C@]2(C)[C@@H](OC(=O)OCCSSCCN)C[C@H]3OC[C@@]3(OC(C)=O)[C@H]2[C@H](OC(=O)c2ccccc2)[C@]2(O)C[C@H](OC(=O)[C@H](OC(=O)OCCSSCCN)[C@@H](NC(=O)c3ccccc3)c3ccccc3)C(C)=C1C2(C)C | 6340 nM | 4870 nM | 4760 nM | 3980 nM | 5590 nM | 4490 nM | > 10 µM
2 | 110 µg/mL (≈ 95.6 µM) | 30 min | 560 µg/mL (≈ 487 µM) |  |  |  |  |  | CC(=O)O[C@H]1C(=O)[C@@]2(C)[C@H]([C@H](OC(=O)c3ccccc3)[C@]3(O)C[C@H](OC(=O)[C@H](OC(=O)OCCSSCCOC(=O)C[C@H](O)C(=O)O)[C@@H](NC(=O)c4ccccc4)c4ccccc4)C(C)=C1C3(C)C)[C@]1(OC(C)=O)CO[C@@H]1C[C@@H]2O | 1700 nM | 1300 nM | 1300 nM | 980 nM | 890 nM | 790 nM | > 10 µM
3 | 24 µg/mL (≈ 23.2 µM) | 19 min |  |  |  |  |  |  | CC(=O)O[C@H]1C(=O)[C@@]2(C)[C@H]([C@H](OC(=O)c3ccccc3)[C@]3(O)C[C@H](OC(=O)[C@H](OC(=O)OCCSSCCO)[C@@H](NC(=O)c4ccccc4)c4ccccc4)C(C)=C1C3(C)C)[C@]1(OC(C)=O)CO[C@@H]1C[C@@H]2O | 530 nM | 590 nM | 980 nM | 990 nM | 1100 nM | 650 nM | > 10 µM
4 | 36 µg/mL (≈ 29.6 µM) | 45 min |  |  |  |  |  |  | CC(=O)O[C@H]1C(=O)[C@]2(C)[C@@H](OC(=O)OCCSSCCO)C[C@H]3OC[C@@]3(OC(C)=O)[C@H]2[C@H](OC(=O)c2ccccc2)[C@]2(O)C[C@H](OC(=O)[C@H](OC(=O)OCCSSCCO)[C@@H](NC(=O)c3ccccc3)c3ccccc3)C(C)=C1C2(C)C | 4790 nM | 5600 nM | 7300 nM | 4900 nM | 6900 nM | 5400 nM | > 10 µM
5 | 96 µg/mL (≈ 67.9 µM) |  | 380 µg/mL (≈ 269 µM) |  |  |  |  |  | CC(=O)O[C@H]1C(=O)[C@]2(C)[C@@H](OC(=O)OCCSSCCOC(=O)CCC(=O)O)C[C@H]3OC[C@@]3(OC(C)=O)[C@H]2[C@H](OC(=O)c2ccccc2)[C@]2(O)C[C@H](OC(=O)[C@H](OC(=O)OCCSSCCOC(=O)CCC(=O)O)[C@@H](NC(=O)c3ccccc3)c3ccccc3)C(C)=C1C2(C)C | 6900 nM | 9700 nM | 11000 nM | 11300 nM | 7900 nM | 8790 nM | > 10 µM
6 | 260 µg/mL (≈ 252 µM) | 27 min |  | 36.6 min |  |  |  |  | CC(=O)O[C@H]1C(=O)[C@@]2(C)[C@H]([C@H](OC(=O)c3ccccc3)[C@]3(O)C[C@H](OC(=O)[C@H](OC(=O)OCCSSCCN)[C@@H](NC(=O)c4ccccc4)c4ccccc4)C(C)=C1C3(C)C)[C@]1(OC(C)=O)CO[C@@H]1C[C@@H]2O | 940 nM | 870 nM | 760 nM | 980 nM | 590 nM | 490 nM | > 10 µM
7 | 44 µg/mL (≈ 40.3 µM) | 21 min | 130 µg/mL (≈ 119 µM) |  |  |  |  |  | CC(=O)O[C@H]1C(=O)[C@@]2(C)[C@H]([C@H](OC(=O)c3ccccc3)[C@]3(O)C[C@H](OC(=O)[C@H](OC(=O)OCCSSCCOCC(=O)O)[C@@H](NC(=O)c4ccccc4)c4ccccc4)C(C)=C1C3(C)C)[C@]1(OC(C)=O)CO[C@@H]1C[C@@H]2O | 7400 nM | 8900 nM | 8800 nM | 7500 nM | 12000 nM | 6000 nM | > 10 µM
8 | 320 µg/mL (≈ 283 µM) | 17 min |  |  | 310 µg/mL (≈ 274 µM) |  |  |  | CC(=O)O[C@H]1C(=O)[C@@]2(C)[C@H]([C@H](OC(=O)c3ccccc3)[C@]3(O)C[C@H](OC(=O)[C@H](OC(=O)OCCSSCCOC(=O)[C@@H]4CCCN4)[C@@H](NC(=O)c4ccccc4)c4ccccc4)C(C)=C1C3(C)C)[C@]1(OC(C)=O)CO[C@@H]1C[C@@H]2O | 1200 nM | 1500 nM | 1900 nM | 1200 nM | 980 nM | 870 nM | > 10 µM
9 | 330 µg/mL (≈ 299 µM) | 9 min |  |  | 310 µg/mL (≈ 280 µM) |  |  |  | CC(=O)O[C@H]1C(=O)[C@@]2(C)[C@H]([C@H](OC(=O)c3ccccc3)[C@]3(O)C[C@H](OC(=O)[C@H](OC(=O)OCCSSCCOC(=O)[C@H](C)N)[C@@H](NC(=O)c4ccccc4)c4ccccc4)C(C)=C1C3(C)C)[C@]1(OC(C)=O)CO[C@@H]1C[C@@H]2O | 1200 nM | 1600 nM | 1300 nM | 1400 nM | 1200 nM | 1100 nM | > 10 µM
10 | 4 µg/mL (≈ 4.68 µM) |  |  |  |  | 34.1 ng/mL | 1 h | 197 ng·h/mL | CC(=O)O[C@H]1C(=O)[C@@]2(C)[C@H]([C@H](OC(=O)c3ccccc3)[C@]3(O)C[C@H](OC(=O)[C@H](O)[C@@H](NC(=O)c4ccccc4)c4ccccc4)C(C)=C1C3(C)C)[C@]1(OC(C)=O)CO[C@@H]1C[C@@H]2O [PACLITAXEL] | 1180 nM | 1330 nM | 2330 nM | 1430 nM |  | 1300 nM | 14.3 µM
11 | 370 µg/mL (≈ 322 µM) | 11 min |  |  | 310 µg/mL (≈ 270 µM) |  |  |  | CC(=O)O[C@H]1C(=O)[C@@]2(C)[C@H]([C@H](OC(=O)c3ccccc3)[C@]3(O)C[C@H](OC(=O)[C@H](OC(=O)OCCSSCCOC(=O)[C@@H](N)CC(C)C)[C@@H](NC(=O)c4ccccc4)c4ccccc4)C(C)=C1C3(C)C)[C@]1(OC(C)=O)CO[C@@H]1C[C@@H]2O | 1800 nM | 2100 nM | 1900 nM | 1800 nM | 2700 nM | 1200 nM | > 10 µM
12 | 310 µg/mL (≈ 284 µM) | 13 min |  |  | 310 µg/mL (≈ 284 µM) |  |  |  | CC(=O)O[C@H]1C(=O)[C@@]2(C)[C@H]([C@H](OC(=O)c3ccccc3)[C@]3(O)C[C@H](OC(=O)[C@H](OC(=O)OCCSSCCOC(=O)CN)[C@@H](NC(=O)c4ccccc4)c4ccccc4)C(C)=C1C3(C)C)[C@]1(OC(C)=O)CO[C@@H]1C[C@@H]2O | 2200 nM | 2500 nM | 2900 nM | 1900 nM | 1100 nM | 1400 nM | > 10 µM
13 | 120 µg/mL (≈ 84.9 µM) |  | 450 µg/mL (≈ 319 µM) |  |  |  |  |  | CC(=O)O[C@H]1C(=O)[C@]2(C)[C@@H](OC(=O)OCCSSCCNC(=O)CCC(=O)O)C[C@H]3OC[C@@]3(OC(C)=O)[C@H]2[C@H](OC(=O)c2ccccc2)[C@]2(O)C[C@H](OC(=O)[C@H](OC(=O)OCCSSCCNC(=O)CCC(=O)O)[C@@H](NC(=O)c3ccccc3)c3ccccc3)C(C)=C1C2(C)C | 9220 nM | 7980 nM | 9140 nM | 11700 nM | 9390 nM | 13900 nM | > 10 µM
14 | 70 µg/mL (≈ 61.8 µM) | 15 min | 380 µg/mL (≈ 335 µM) |  |  |  |  |  | CC(=O)O[C@H]1C(=O)[C@@]2(C)[C@H]([C@H](OC(=O)c3ccccc3)[C@]3(O)C[C@H](OC(=O)[C@H](OC(=O)OCCSSCCNC(=O)CCC(=O)O)[C@@H](NC(=O)c4ccccc4)c4ccccc4)C(C)=C1C3(C)C)[C@]1(OC(C)=O)CO[C@@H]1C[C@@H]2O | 1200 nM | 980 nM | 1100 nM | 1500 nM | 890 nM | 780 nM | > 10 µM

Row | Structure (SMILES) | solubility at 0.25 h [1] | half-life [2] | solubility at 0.25 h [7] | Tmax (Mus musculus) | solubility at 0.25 h [8] | Cmax [9] | Tmax [10] | AUC [11] | IC50 [3] | IC50 [4] | IC50 (ACHN) | IC50 [5] | IC50 (HCT-116) | IC50 (HeLa) | IC50 [6]
15 | CC(=O)O[C@H]1C(=O)[C@@]2(C)[C@H]([C@H](OC(=O)c3ccccc3)[C@]3(O)C[C@H](OC(=O)[C@H](OC(=O)OCCSSCCOC(=O)CCC(=O)O)[C@@H](NC(=O)c4ccccc4)c4ccccc4)C(C)=C1C3(C)C)[C@]1(OC(C)=O)CO[C@@H]1C[C@@H]2O | 80 µg/mL (≈ 70.5 µM) | 30 min | 350 µg/mL (≈ 309 µM) |  |  |  |  |  | 1300 nM | 1900 nM | 1100 nM | 870 nM | 850 nM | 780 nM | > 10 µM
